Assay results from publication PMC8637766, “A mixed chirality α-helix in a stapled bicyclic and a linear antimicrobial peptide revealed by X-ray crystallography” (RSC Chemical Biology, 2021).
Values after ≈ are worked out from the molar mass of the structure shown. Peptide text beside a SMILES is read from it.

What was measured:
[1] = system: P. aeruginosa PAO1; assay type: cell-based, Pseudomonas aeruginosa
Protocol: (§1) Bicyclic and linear peptides cytotoxicity was assayed against P. aeruginosa PAO1, P. aeruginosa ZEM-1A, P. aeruginosa ZEM9A, K. pneumoniae Oxa-48, E. coli W3110, A. baumannii BAL225, S. aureus Newman, S. aureus COL (clinical isolate of MRSA) , B. Subtilis BR151.
(§2) To determine the Minimal Inhibitory Concentration (MIC), Broth Microdilution method was used . 2 A colony of bacteria from glycerol stock was grown in LB medium overnight at 37 °C and 180 rpm shaking. The compounds were prepared as stock solutions of 8 mg/mL in sterilized milliQ deionized water, added to the first well of 96 -well sterile, polypropylene round bottom microtiter plates (TPP, untreated) and diluted serially by ½. The concentration of the bacteria was quantified by measuring absorbance at 600 nm and diluted to an OD 600 of 0.022 in MH medium. The sample solutions (150 µL) were mixed with 4 µL diluted bacterial suspension with a final inoculation of about 5×10^5 CFU.
For each test, two columns of the plate were kept for sterility control (MH medium only), growth control (MH medium with bacterial inoculum, no compound). The positive control, Polymyxin B (starting with a concentration of 64 µg/mL) in MH medium with bacterial inoculums, was introduced in the two first lines of the plate. The plates were incubated at 37 °C for ~18 hours under static conditions. 15 μL of 3-(4,5-dimethylthiazol-2-yl)-2,5-diphenyltetrazolium bromide (MTT)3 (1 mg/mL in sterilized milliQ deionized water) were added to each well and the plates were incubated for 20-30 minutes at room temperature. The minimal inhibitory concentration (MIC) was defined as the lowest concentration of the dendrimer that inhibits the visible growth of the tested bacteria (yellow) with the unaided eye.

[2] = system: B. subtilis BR151; assay type: cell-based, Bacillus subtilis; settings: BR151, 20 h
Protocol: as §1, §2
For each test, two columns of the plate were kept for sterility control (MH medium only), growth control (MH medium with bacterial inoculum, no compound). The positive control, Polymyxin B (starting with a concentration of 64 µg/mL) in MH medium with bacterial inoculums, was introduced in the two first lines of the plate. […]
conditions. 15 μL of 3-(4,5-dimethylthiazol-2-yl)-2,5-diphenyltetrazolium bromide (MTT)3 (1 mg/mL in sterilized milliQ deionized water) were added to each well and the plates were incubated for 20-30 minutes at room temperature. The minimal inhibitory concentration (MIC) was defined as the lowest concentration of the dendrimer that inhibits the visible growth of the tested bacteria (yellow) with the unaided eye.

[3] = Lipid vesicle leakage assay, 5(6)-carboxyfluorescein release; settings: for EYPC vesicle leakage / EYPG vesicle leakage: 10 μg mL^−1 compound, leakage at 250 s, 10 mM TRIS, 107 mM NaCl, pH 7.4, 25 °C, carboxyfluorescein fluorescence, Triton X-100 = full release
Protocol: 4 Lipid Vesicle Leakage assays
5(6)-carboxyfluorescein (CF) was purchased from Sigma. Egg Yolk Phosphatidylcholine (EYPC),
Egg Yolk Phosphatidylglycerol (EYPG) and a Mini-Extruder were purchased from Avanti Polar
Lipids. Egg PC or Egg PG thin lipid layers were prepared by evaporating a solution of 100 mg EYPC
or EYPG in 4 mL MeOH/CHCl3 (1:1) on a rotary evaporator at room temperature and then dried in
vacuo overnight. The resulting film was then hydrated with 4 mL CF buffer (50 mM CF, 10 mM
TRIS, 107 mM NaCl, pH 7.4) for 30 min, subjected to freeze-thaw cycles (7×) and extrusion (15×)
through a polycarbonate membrane (pore size 100 nm). Extra vesicular components were removed
by gel filtration (Sephadex G-50) with 10 mM TRIS, 107 mM NaCl, pH 7.4 buffer. Final conditions:
~ 2.5 mM PC or PG; inside: 50 mM CF, 10 mM TRIS, 10 mM NaCl, pH 7.4 buffer; outside: 10 mM
TRIS, 107 mM NaCl, pH 7.4. PC or PG stock solutions (37.5 µL) were diluted to 3000 µL with a
buffer (10 mM TRIS, 107 mM NaCl, pH 7.4) in a thermostated fluorescence cuvette (25 °C) and
gently stirred (final lipid concentration ~31 µM). CF efflux was monitored at λem 517 nm (λex 492
nm) as a function of time after addition of the desired volume of peptide (1 or 20 mg/mL stock in mQ
water) at t = 45 s. The following final concentrations of peptide were monitored: 5, 10, 15, 20, 25 and
200 µg/mL. Finally, 30 µL of 1.2% Triton X -100 was added to the cuvette (0.012% final
concentration) at t = 285 s to reach the maximum intensity. Fluorescence intensities were then
Figure S1: Vesicle leakage experiments using 5(6)-carboxyfluorescein induced by peptides. EYPG and EYPC vesicles
were suspended in buffer (10 mM TRIS, 107 mM NaCl, pH 7.4) and the indicated concentration of the compound was
added after 45 sec. After 285 seconds 30 μL Triton X-100 1.2% was added for full release of fluorescein. […]

Structure (SMILES)	MIC PAO1 [1] [µg/mL]	MIC BR 151 [2] [µg/mL]	other results
Cc1c2cc3cc1CSC[C@H](NC(=O)[C@H](CCCCN)NC(=O)[C@H](CC(C)C)NC(=O)[C@H](CC(C)C)NC(=O)[C@H](CCCCN)NC(=O)[C@H](CCCCN)NC3=O)C(=O)N[C@@H](CC(C)C)C(=O)N[C@@H](CCCCN)C(=O)N[C@H](C(=O)N[C@@H](CC(C)C)C(N)=O)CSC2 [bp3] (HELM PEPTIDE1{K.K.L.L.K.C.L.K.C.L.[am]}|CHEM1{[Cc1c(C[*:2])cc(C(=O)[*:1])cc1C[*:3]]}$PEPTIDE1,CHEM1,1:R1-1:R1|PEPTIDE1,CHEM1,6:R3-1:R2|PEPTIDE1,CHEM1,9:R3-1:R3$$$V2.0)	>64	4 (≈ 3.01 µM)	
Cc1c2cc3cc1CSC[C@@H](NC(=O)[C@H](CCCCN)NC(=O)[C@H](CC(C)C)NC(=O)[C@H](CC(C)C)NC(=O)[C@H](CCCCN)NC(=O)[C@H](CCCCN)NC3=O)C(=O)N[C@@H](CC(C)C)C(=O)N[C@@H](CCCCN)C(=O)N[C@@H](C(=O)N[C@@H](CC(C)C)C(=O)N[C@@H](CC(C)C)C(N)=O)CSC2 [bp68] (HELM PEPTIDE1{K.K.L.L.K.[dC].L.K.[dC].L.L.[am]}|CHEM1{[Cc1c(C[*:2])cc(C(=O)[*:1])cc1C[*:3]]}$PEPTIDE1,CHEM1,1:R1-1:R1|PEPTIDE1,CHEM1,6:R3-1:R2|PEPTIDE1,CHEM1,9:R3-1:R3$$$V2.0)	16 (≈ 11.1 µM)		EYPC vesicle leakage [3]: 18%; EYPG vesicle leakage [3]: 44%
Cc1c2cc3cc1CSC[C@H](NC(=O)[C@H](CCCCN)NC(=O)[C@H](CC(C)C)NC(=O)[C@H](CC(C)C)NC(=O)[C@H](CCCCN)NC(=O)[C@H](CCCCN)NC3=O)C(=O)N[C@@H](CCCCN)C(=O)N[C@@H](CC(C)C)C(=O)N[C@H](C(=O)N[C@@H](CC(C)C)C(N)=O)CSC2 [bp64] (HELM PEPTIDE1{K.K.L.L.K.C.K.L.C.L.[am]}|CHEM1{[Cc1c(C[*:2])cc(C(=O)[*:1])cc1C[*:3]]}$PEPTIDE1,CHEM1,1:R1-1:R1|PEPTIDE1,CHEM1,6:R3-1:R2|PEPTIDE1,CHEM1,9:R3-1:R3$$$V2.0)		16 (≈ 12 µM)	
Cc1c2cc3cc1CSC[C@H](C(=O)N[C@@H](CC(C)C)C(=O)N[C@H](CC(C)C)C(N)=O)NC(=O)[C@H](CCCCN)NC(=O)[C@@H](CC(C)C)NC(=O)[C@H](CSC2)NC(=O)[C@@H](CCCCN)NC(=O)[C@H](CC(C)C)NC(=O)[C@@H](CC(C)C)NC(=O)[C@H](CCCCN)NC(=O)[C@@H](CCCCN)NC3=O [bp67] (HELM PEPTIDE1{[dK].K.[dL].L.[dK].C.[dL].K.[dC].L.[dL].[am]}|CHEM1{[Cc1c(C[*:2])cc(C(=O)[*:1])cc1C[*:3]]}$PEPTIDE1,CHEM1,1:R1-1:R1|PEPTIDE1,CHEM1,6:R3-1:R2|PEPTIDE1,CHEM1,9:R3-1:R3$$$V2.0)	32 (≈ 22.2 µM)		EYPC vesicle leakage [3]: 6%; EYPG vesicle leakage [3]: 48%; Leakage activity on EYPC vesicles, in words ([3]; zwitterionic EYPC vesicles mimicking eukaryotic membranes): very low leakage activity
Cc1c2cc3cc1CSC[C@H](NC(=O)[C@H](CC(C)C)NC(=O)[C@H](CC(C)C)NC(=O)[C@H](CC(C)C)NC(=O)[C@H](CCCCN)NC(=O)[C@H](CCCCN)NC3=O)C(=O)N[C@@H](CCCCN)C(=O)N[C@@H](CC(C)C)C(=O)N[C@H](C(=O)N[C@@H](CCCCN)C(N)=O)CSC2 [bp62] (HELM PEPTIDE1{K.K.L.L.L.C.K.L.C.K.[am]}|CHEM1{[Cc1c(C[*:2])cc(C(=O)[*:1])cc1C[*:3]]}$PEPTIDE1,CHEM1,1:R1-1:R1|PEPTIDE1,CHEM1,6:R3-1:R2|PEPTIDE1,CHEM1,9:R3-1:R3$$$V2.0)		32 (≈ 24 µM)	
Cc1c2cc3cc1CSC[C@H](NC(=O)[C@H](CC(C)C)NC(=O)[C@H](CCCCN)NC(=O)[C@H](CCCCN)NC3=O)C(=O)N[C@@H](CCCCN)C(=O)N[C@@H](CC(C)C)C(=O)N[C@@H](CC(C)C)C(=O)N[C@@H](CCCCN)C(=O)N[C@H](C(=O)N[C@@H](CC(C)C)C(N)=O)CSC2 [bp63] (HELM PEPTIDE1{K.K.L.C.K.L.L.K.C.L.[am]}|CHEM1{[Cc1c(C[*:2])cc(C(=O)[*:1])cc1C[*:3]]}$PEPTIDE1,CHEM1,1:R1-1:R1|PEPTIDE1,CHEM1,4:R3-1:R2|PEPTIDE1,CHEM1,9:R3-1:R3$$$V2.0)		4 (≈ 3.01 µM)	
Cc1c2cc3cc1CSC[C@H](NC(=O)[C@H](CCCCN)NC(=O)[C@H](CCCCN)NC(=O)[C@H](CC(C)C)NC(=O)[C@H](CC(C)C)NC(=O)[C@H](CCCCN)NC3=O)C(=O)N[C@@H](CC(C)C)C(=O)N[C@@H](CCCCN)C(=O)N[C@H](C(=O)N[C@@H](CC(C)C)C(N)=O)CSC2 [bp59] (HELM PEPTIDE1{K.L.L.K.K.C.L.K.C.L.[am]}|CHEM1{[Cc1c(C[*:2])cc(C(=O)[*:1])cc1C[*:3]]}$PEPTIDE1,CHEM1,1:R1-1:R1|PEPTIDE1,CHEM1,6:R3-1:R2|PEPTIDE1,CHEM1,9:R3-1:R3$$$V2.0)		4 (≈ 3.01 µM)	
Cc1c2cc3cc1CSC[C@H](NC(=O)[C@H](CC(C)C)NC(=O)[C@H](CCCCN)NC(=O)[C@H](CCCCN)NC3=O)C(=O)N[C@@H](CCCCN)C(=O)N[C@@H](CC(C)C)C(=O)N[C@H](C(=O)N[C@@H](CCCCN)C(=O)N[C@@H](CC(C)C)C(N)=O)CSC2 [bp61] (HELM PEPTIDE1{K.K.L.C.K.L.C.K.L.[am]}|CHEM1{[Cc1c(C[*:2])cc(C(=O)[*:1])cc1C[*:3]]}$PEPTIDE1,CHEM1,1:R1-1:R1|PEPTIDE1,CHEM1,4:R3-1:R2|PEPTIDE1,CHEM1,7:R3-1:R3$$$V2.0)		> 64	
Cc1c2cc3cc1CSC[C@H](NC(=O)[C@H](CC(C)C)NC(=O)[C@H](CCCCN)NC(=O)[C@H](CC(C)C)NC(=O)[C@H](CC(C)C)NC(=O)[C@H](CCCCN)NC3=O)C(=O)N[C@@H](CCCCN)C(=O)N[C@@H](CCCCN)C(=O)N[C@H](C(=O)N[C@@H](CC(C)C)C(N)=O)CSC2 [bp60] (HELM PEPTIDE1{K.L.L.K.L.C.K.K.C.L.[am]}|CHEM1{[Cc1c(C[*:2])cc(C(=O)[*:1])cc1C[*:3]]}$PEPTIDE1,CHEM1,1:R1-1:R1|PEPTIDE1,CHEM1,6:R3-1:R2|PEPTIDE1,CHEM1,9:R3-1:R3$$$V2.0)		> 64	
Cc1c2cc3cc1CSC[C@H](NC(=O)[C@H](CC(C)C)NC(=O)[C@H](CCCCN)NC(=O)[C@H](CCCCN)NC3=O)C(=O)N[C@@H](CCCCN)C(=O)N[C@@H](CC(C)C)C(=O)N[C@@H](CC(C)C)C(=O)N[C@@H](CCCCN)C(=O)N[C@H](C(N)=O)CSC2 [bp66] (HELM PEPTIDE1{K.K.L.C.K.L.L.K.C.[am]}|CHEM1{[Cc1c(C[*:2])cc(C(=O)[*:1])cc1C[*:3]]}$PEPTIDE1,CHEM1,1:R1-1:R1|PEPTIDE1,CHEM1,4:R3-1:R2|PEPTIDE1,CHEM1,9:R3-1:R3$$$V2.0)		> 64	
